The target in experiment [1] is T1, human 5-HT1A receptor (Homo sapiens, UniProt P08908).
T1 construct: expressed in transfected cells; host or cells: Chinese hamster ovary cells (5-HT1A.CHO), membranes
T1 sequence (P08908 1-422): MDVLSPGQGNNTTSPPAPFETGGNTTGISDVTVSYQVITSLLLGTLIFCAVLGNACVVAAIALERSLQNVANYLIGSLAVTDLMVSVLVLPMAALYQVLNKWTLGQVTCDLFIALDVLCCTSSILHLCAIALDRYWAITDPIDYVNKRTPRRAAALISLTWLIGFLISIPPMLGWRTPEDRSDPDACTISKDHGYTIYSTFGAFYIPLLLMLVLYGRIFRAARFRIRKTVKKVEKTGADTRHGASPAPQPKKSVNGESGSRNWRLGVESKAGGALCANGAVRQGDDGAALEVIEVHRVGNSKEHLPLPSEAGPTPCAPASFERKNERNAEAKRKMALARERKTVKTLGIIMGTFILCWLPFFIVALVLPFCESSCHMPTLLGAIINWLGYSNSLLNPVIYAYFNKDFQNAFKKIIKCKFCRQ
As to the kind of experiment: [3H]8-OH-DPAT competition binding at human 5-HT1A receptor (5-HT1A.CHO cell membranes). The conditions noted are these: [3H]8-OH-DPAT 1.5 nM; for inhibition at 1 µM: 0.5 h. The procedure: The PCR cloning of the human 5-HT1A receptor subtype from a human genomic library has been described previously Chanda et al., Mol. Pharmacol., 43:516 (1993). A stable Chinese hamster ovary cell line expressing the human 5-HT1A receptor subtype (5-HT1A.CHO cells) was employed throughout this study. Cells were maintained in DMEM supplemented with 10% foetal calf serum, non-essential amino acids and penicillin/streptomycin.
Cells were grown to 95-100% confluency as a monolayer before membranes were harvested for binding studies. Cells were gently scraped from the culture plates, transferred to centrifuge tubes, and washed twice by centrifugation (2000 rpm for 10 min., 4° C.) in buffer (50 mM Tris; pH 7.5). The resulting pellets were aliquoted and placed at -80° C. On the day of assay, the cells were thawed on ice, and resuspended in buffer. Studies were conducted using [^3 H]8-OH-DPAT as the radioligand. The binding assay was performed in 96 well microtiter plates in a final total volume of 250 μL of buffer. Competition experiments were performed by using 7 concentrations of unlabelled drug and a final ligand concentration of 1.5 nM. Non-specific binding was determined in the presence of 10 μM 5HT. Saturation analysis was conducted by using [^3 H]8-OH-DPAT at concentrations ranging from 0.3-30 nM. Following a 30 minute incubation at room temperature, the reaction was terminated by the addition of ice cold buffer and rapid filtration using a M-96 Brandel Cell Harvester (Gaithersburg, Md) through a GF/B filter presoaked for 30 minutes in 0.5% polyethyleneimine.

In experiment [2] the target is T2, serotonin transporter (Rattus norvegicus, UniProt P31652).
T2 construct: frontal cortical membranes prepared from male Sprague-Dawley rats; from tissue; host or cells: frontal cortical membranes of male Sprague-Dawley rats
T2 sequence (P31652 whole entry): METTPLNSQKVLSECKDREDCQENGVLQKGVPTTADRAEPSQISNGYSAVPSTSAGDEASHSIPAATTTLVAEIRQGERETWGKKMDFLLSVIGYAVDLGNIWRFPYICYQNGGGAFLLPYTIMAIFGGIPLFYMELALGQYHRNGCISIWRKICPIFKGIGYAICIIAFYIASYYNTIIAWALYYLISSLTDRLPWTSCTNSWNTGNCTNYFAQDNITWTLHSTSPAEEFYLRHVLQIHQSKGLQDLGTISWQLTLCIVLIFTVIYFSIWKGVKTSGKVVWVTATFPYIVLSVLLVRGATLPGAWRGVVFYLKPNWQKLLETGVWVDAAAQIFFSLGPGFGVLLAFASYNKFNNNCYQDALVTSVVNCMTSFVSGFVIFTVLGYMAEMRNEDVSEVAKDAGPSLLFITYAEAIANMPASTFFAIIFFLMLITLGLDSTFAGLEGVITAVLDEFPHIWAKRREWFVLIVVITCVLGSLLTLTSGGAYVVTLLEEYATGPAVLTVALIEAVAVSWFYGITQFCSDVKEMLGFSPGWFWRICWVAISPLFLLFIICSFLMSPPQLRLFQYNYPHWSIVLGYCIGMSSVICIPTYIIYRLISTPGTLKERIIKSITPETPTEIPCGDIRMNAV
Put plainly: [3H]-paroxetine binding, affinity for the serotonin transporter (rat frontal cortical membranes). Also on record: species or system male Sprague-Dawley rats. The settings on record: 3H-paroxetine (0.1 nM); for Ki: 60 min at 25° C., read-out: Ki (nM) ST [^3 H]paroxetine. The procedure: A protocol similar to that used by Cheetham et al., Neuropharmacol., 32:737 (1993) was used to determine the affinity of compounds for the serotonin transporter. Briefly, frontal cortical membranes prepared from male Sprague-Dawley rats were incubated with ^3 H-paroxetine (0.1 nM) for 60 min at 25° C. All tubes also contained either vehicle, test compound (one to eight concentrations), or a saturating concentration of fluoxetine (10 μM) to define […]. All reactions are terminated by the addition of ice cold Tris buffer followed by rapid filtration using a Tom Tech filtration device to separate bound from free ^3 H-paroxetine. Bound radioactivity was quantitated using a Wallac 1205 Beta Plate® counter. Nonlinear regression analysis was used to determine IC50 values which were converted to Ki values using the method of Cheng and Prusoff, Biochem. Pharmacol., 22:3099 (1973); Ki=IC50/((Radioligand conc.)/(1+KD)).

The Ki is a measure of affinity in units of concentration, obtained from inhibition or displacement. For `Fc1ccc2[nH]cc([C@H]3CC[C@H](NCC4CNc5ccccc5O4)CC3)c2c1` (relative stereo) [1 (trans), (3,4-Dihydro-benzo[1,4]oxazine-2-ylmethyl)-[trans-4-(5-fluoro-1H-indol-3-yl)-cyclohexyl]-amine], in experiment [1], the inhibition at 1 µM was determined as 44%. Moreover, the Ki in experiment [2] was found to be 24 nM.
As for `Fc1ccc2[nH]cc([C@H]3CC[C@@H](NCC4COc5ccccc5N4)CC3)c2c1` (relative stereo) [2 (cis), (3,4-Dihydro-benzo[1,4]oxazine-3-ylmethyl)-[cis-4-(5-fluoro-1H-indol-3-yl)-cyclohexyl]-amine], the inhibition at 1 µM was 9% in experiment [1] and 34% in experiment [2] (1 h, @ 1 μM, read-out: ST [^3 H]paroxetine, % @ 1 μM).
As for `Fc1ccc2[nH]cc([C@H]3CC[C@H](NCC4COc5ccccc5N4)CC3)c2c1` (relative stereo) [2 (trans), (3,4-Dihydro-benzo[1,4]oxazine-3-ylmethyl)-[trans-4-(5-fluoro-1H-indol-3-yl)-cyclohexyl]-amine], in experiment [1], the inhibition at 1 µM was determined as 20%. Moreover, the Ki in experiment [2] came to 10 nM.
Turning to `Fc1ccc2[nH]cc([C@H]3CC[C@@H](NCC4CNc5ccccc5O4)CC3)c2c1` (stereo partly drawn) [1 (cis), (3,4-Dihydro-benzo[1,4]oxazine-2-ylmethyl)-[cis-4-(5-floro-1H-indol-3-yl)-cyclohexyl]-amine], the inhibition constant Ki amounted to 2430 nM in experiment [1] (30 minute incubation at room temperature) and 44 nM in experiment [2].

(Values after US6162803A, “Indol-3-yl-cyclohexyl amine derivatives for the treatment of depression” (American Home Products Corp., priority 1999, dated 2000).)
